The structures appear in SMILES notation.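 These data come from cells grown in 96-well plates and exposed to compound for 48 hours at five concentrations. GI50 marks 50% less growth.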 Active and inactive are the calls of the source. Rule as the data show it: active = GI50 up to about 1.1 µM and inactive = higher. Bounds are passed on as bounds.

Experiment in all cases: inhibition of tumour cell growth, NCI panel, 48 h
The subject of experiment [1] is ACHN.
Experiment [2] concerns CCRF-CEM.
Experiment [3] concerns COLO 205.
For experiment [4], the system named is DU-145.
For experiment [5], the system named is HCC 2998.
The subject of experiment [6] is HCT-15.
For experiment [7], the system named is HOP-62.
In experiment [8] the test system is K562.
Experiment [9] has as its system MCF7.
In experiment [10] the test system is NCI-H23.
In experiment [11] the test system is NCI-H460.
The subject of experiment [12] is NCI/ADR-RES.
Experiment [13] relates to OVCAR-8.
Experiment [14] concerns PC-3.
The test system of experiment [15] is SK-OV-3.
Experiment [16] relates to SNB-19.
The subject of experiment [17] is SNB-75.
For experiment [18], the system named is SW-620.
In experiment [19] the test system is T47D.
Experiment [20] has as its system UO-31.

`O=[N+]([O-])c1cc2[nH]nnc2c2nonc12`: the GI50 in experiment [1] was 23.4 µM (inactive); in experiment [2], 14.4 µM (inactive); in [3], 17.5 µM (inactive); in [4], 33.3 µM (inactive); in experiment [5], 17.9 µM (inactive); in experiment [6], 29.2 µM. Further, the GI50 in [7] was 55 µM (inactive); in [8], 22.8 µM (inactive); in experiment [9] it was 3.24 µM (inactive); in experiment [10] it was 26.5 µM (inactive); in experiment [11] it was 35.1 µM (inactive); in experiment [12] it was 48.3 µM (inactive). In addition, the GI50 is 21.1 µM (inactive) in experiment [13]; 49.4 µM (inactive) in experiment [14]; 46.8 µM (inactive) in experiment [15]; 30.7 µM (inactive) in experiment [16]; 38.5 µM (inactive) in [17]; 30.7 µM (inactive) in experiment [18]. Moreover, the GI50 in [19] was > 100 µM (inactive); in [20], 17.9 µM (inactive).
Regarding `Clc1ccc2c(NCCCCN3OC3c3ccccc3)ccnc2c1` (stereo not given), the GI50 in [1] was 9.44 µM (inactive); in [2], 2.15 µM (inactive); in experiment [3], 2.86 µM (inactive); in experiment [4], 10.4 µM (inactive); in [5], 2.89 µM (inactive); in experiment [6], 10.4 µM. The GI50 is 4.75 µM (inactive) in experiment [7]; 2.44 µM (inactive) in [8]; 4.29 µM (inactive) in [9]; 15.8 µM (inactive) in experiment [10]; 6.5 µM (inactive) in experiment [11]; 18.5 µM (inactive) in experiment [12]. In addition, the GI50 in experiment [13] was 3.71 µM (inactive); in [14] it was 13.3 µM (inactive); in [15], 19.6 µM (inactive); in [16], 6.89 µM (inactive); in experiment [17], 5.82 µM (inactive); in experiment [18], 5.21 µM (inactive). The results for the GI50 in [19] and in experiment [20] were 5.53 µM (inactive) and 14.8 µM (inactive), respectively.
As to `COc1ccc(/N=N\c2c(N)nn3c(SC)c(C#N)c(N)nc23)cc1`, the GI50 was 14.6 µM (inactive) in experiment [1]; 2.02 µM (inactive) in experiment [2]; 12.9 µM (inactive) in experiment [3]; 5.52 µM (inactive) in experiment [4]; 3.96 µM (inactive) in [5]; 8.61 µM in experiment [6]. Moreover, the GI50 was 22.3 µM (inactive) in experiment [7]; 2.16 µM (inactive) in experiment [8]; 2.4 µM (inactive) in [9]; 5.55 µM (inactive) in [10]; 15.8 µM (inactive) in experiment [11]; 23.4 µM (inactive) in [12]. For the same compound, the GI50 in experiment [13] was 5.04 µM (inactive); in [14], 6.87 µM (inactive); in [15], 19.5 µM (inactive); in [16] it was 16.9 µM (inactive); in experiment [17], 17.8 µM (inactive); in experiment [18], 4.6 µM (inactive). Further, the figures for the GI50 in [19] and in experiment [20] were 1.85 µM (inactive) and 12.4 µM (inactive), respectively.
With `C/C(Cl)=N\OC(=O)Nc1ccc([N+](=O)[O-])cc1`, the GI50 in experiment [1] is 4.73 µM (inactive); in experiment [2], 2.77 µM (inactive); in experiment [3], 2.49 µM (inactive); in experiment [4] it was 17.6 µM (inactive); in experiment [5], 15.6 µM (inactive); in experiment [6] it was 14.1 µM. Also, the GI50 was > 100 µM (inactive) in experiment [7]; 2.02 µM (inactive) in experiment [8]; 3.08 µM (inactive) in [9]; 21.5 µM (inactive) in experiment [10]; 18.7 µM (inactive) in experiment [11]; 17.6 µM (inactive) in experiment [12]. Further, the GI50 in experiment [13] is 15.1 µM (inactive); in experiment [14], 16.2 µM (inactive); in [15], 13.3 µM (inactive); in experiment [16] it was 17.5 µM (inactive); in experiment [17], 16.7 µM (inactive); in experiment [18] it was 2 µM (inactive). In addition, the GI50 in experiment [19] was 9.48 µM (inactive); in experiment [20], 5.6 µM (inactive).
Turning to `N#C/C(C(=O)Nc1ccc(Cl)cc1)=C(/N)N1CCCC1`, the GI50 is > 100 µM (inactive) in experiment [1]; > 100 µM (inactive) in experiment [2]; > 100 µM (inactive) in experiment [3]; > 100 µM (inactive) in [4]; > 100 µM (inactive) in experiment [5]; over 100 µM in [6]. Besides, the GI50 in [7], in experiment [8], in experiment [9], in experiment [10], in experiment [11] and in experiment [12] was > 100 µM (inactive) each time. Moreover, the GI50 in experiment [13], in [14], in [15], in [16], in experiment [17] and in [18] was > 100 µM (inactive) throughout. Moreover, the GI50 in experiment [19] and in [20] was > 100 µM (inactive) in each case.
In the case of `Cc1c([C@H](C)[C@@H]2NC[C@@H](C)C[C@H]2O)ccc2c1C[C@H]1[C@H]2CC=C2C[C@@H](O)CC[C@@]21C` [VERATRAMINE], the GI50 in [1] is 15 µM (inactive); in [2], 16.1 µM (inactive); in [3] it was 14.4 µM (inactive); in experiment [4], 27.6 µM (inactive); in experiment [5], 13.2 µM (inactive); in [6], 20.2 µM. Further, the GI50 in [7] was 23.4 µM (inactive); in [8], 12.1 µM (inactive); in experiment [9], 15.4 µM (inactive); in experiment [10], 11.7 µM (inactive); in experiment [11] it was 16.9 µM (inactive); in experiment [12] it was 23.4 µM (inactive). Further, the GI50 in experiment [13] is 21.9 µM (inactive); in experiment [14], 11.5 µM (inactive); in [15], 23.8 µM (inactive); in experiment [16], 27.8 µM (inactive); in [17] it was 17.5 µM (inactive); in [18], 28.6 µM (inactive). Moreover, the GI50 in [19] is 12.9 µM (inactive); in experiment [20], 14 µM (inactive).

Values taken from ChEMBL document CHEMBL1201862, “PubChem BioAssay data set” (2004).
